Earlier results, collected in patent US20070010670A1, “Nitrogen-containing fused ring compounds and use thereof” (Japan Tobacco Inc., priority 2004, published 2007).

What was measured:
[1] = target: T1, CYP2C8 (Homo sapiens, UniProt P10632); conditions: cited from earlier work
T1 sequence (P10632 1-490): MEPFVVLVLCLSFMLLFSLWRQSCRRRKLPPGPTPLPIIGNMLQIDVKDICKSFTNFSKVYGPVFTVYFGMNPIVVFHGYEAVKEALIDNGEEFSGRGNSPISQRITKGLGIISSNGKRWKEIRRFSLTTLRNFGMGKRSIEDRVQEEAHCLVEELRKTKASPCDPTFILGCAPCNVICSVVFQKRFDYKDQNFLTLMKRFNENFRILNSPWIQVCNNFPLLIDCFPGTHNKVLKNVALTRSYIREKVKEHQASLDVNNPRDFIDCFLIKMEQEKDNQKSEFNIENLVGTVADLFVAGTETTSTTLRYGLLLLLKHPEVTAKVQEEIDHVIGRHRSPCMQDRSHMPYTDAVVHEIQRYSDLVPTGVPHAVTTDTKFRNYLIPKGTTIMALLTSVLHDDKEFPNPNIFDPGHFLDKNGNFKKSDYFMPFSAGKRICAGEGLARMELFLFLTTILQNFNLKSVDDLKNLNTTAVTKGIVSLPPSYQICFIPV

[2] = target: CYP2C19 (Homo sapiens, UniProt P33261); conditions: cited from earlier work
Chain of CYP2C19 (P33261 whole entry): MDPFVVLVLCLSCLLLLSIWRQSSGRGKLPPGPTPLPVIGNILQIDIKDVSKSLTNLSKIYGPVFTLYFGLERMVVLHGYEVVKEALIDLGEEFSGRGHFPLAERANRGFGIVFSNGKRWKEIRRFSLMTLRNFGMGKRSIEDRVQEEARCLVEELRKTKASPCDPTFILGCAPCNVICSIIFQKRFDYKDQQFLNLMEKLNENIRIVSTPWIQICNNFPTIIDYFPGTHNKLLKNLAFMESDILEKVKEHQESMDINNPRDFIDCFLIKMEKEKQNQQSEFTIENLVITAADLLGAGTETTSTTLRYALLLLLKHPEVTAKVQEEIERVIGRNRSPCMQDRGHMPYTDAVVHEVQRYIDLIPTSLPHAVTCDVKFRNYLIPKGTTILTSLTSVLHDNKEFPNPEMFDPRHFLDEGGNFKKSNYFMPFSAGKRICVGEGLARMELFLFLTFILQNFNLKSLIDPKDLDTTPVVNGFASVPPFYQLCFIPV

[3] = target: CYP3A4 (Homo sapiens, UniProt P08684); conditions: cited from earlier work
Chain of CYP3A4 (P08684 whole entry): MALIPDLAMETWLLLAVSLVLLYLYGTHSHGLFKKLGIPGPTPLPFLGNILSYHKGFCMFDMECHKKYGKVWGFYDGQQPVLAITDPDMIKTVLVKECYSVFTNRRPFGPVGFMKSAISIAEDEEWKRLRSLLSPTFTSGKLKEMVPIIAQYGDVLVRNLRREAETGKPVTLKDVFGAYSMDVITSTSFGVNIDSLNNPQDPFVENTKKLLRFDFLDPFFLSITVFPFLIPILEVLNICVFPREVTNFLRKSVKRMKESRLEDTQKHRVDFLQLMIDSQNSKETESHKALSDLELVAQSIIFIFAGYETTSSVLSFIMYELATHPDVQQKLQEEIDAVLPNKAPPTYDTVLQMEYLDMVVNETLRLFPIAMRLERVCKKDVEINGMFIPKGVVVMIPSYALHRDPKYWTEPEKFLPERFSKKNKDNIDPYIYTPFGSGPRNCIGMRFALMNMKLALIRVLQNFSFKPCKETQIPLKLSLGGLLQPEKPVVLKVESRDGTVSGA

[4] = target: T2, URAT1 (Homo sapiens, UniProt Q96S37); parameters: host or cells: Xenopus laevis oocyte expression system; conditions: Xenopus laevis oocyte expression system; cited from earlier work
T2 sequence (Q96S37 1-553): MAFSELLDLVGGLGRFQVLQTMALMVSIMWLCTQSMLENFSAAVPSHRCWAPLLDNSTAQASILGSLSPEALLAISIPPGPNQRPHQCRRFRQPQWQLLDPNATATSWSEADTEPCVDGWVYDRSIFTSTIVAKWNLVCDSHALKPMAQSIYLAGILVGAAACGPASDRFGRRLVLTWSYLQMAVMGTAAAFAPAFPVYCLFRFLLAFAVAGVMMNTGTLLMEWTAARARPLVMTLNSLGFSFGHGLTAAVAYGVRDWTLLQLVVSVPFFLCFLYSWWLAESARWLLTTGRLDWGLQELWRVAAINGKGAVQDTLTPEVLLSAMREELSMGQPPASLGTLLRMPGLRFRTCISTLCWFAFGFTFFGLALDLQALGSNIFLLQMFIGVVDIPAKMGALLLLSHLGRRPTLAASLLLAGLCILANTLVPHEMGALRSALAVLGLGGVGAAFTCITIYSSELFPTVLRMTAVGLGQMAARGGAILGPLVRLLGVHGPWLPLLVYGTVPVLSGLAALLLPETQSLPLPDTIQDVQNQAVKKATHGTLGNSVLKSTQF

In the case of `CCc1oc2ccccc2c1C(=O)c1cc(Br)c(O)c(Br)c1` [benzbromarone], the “inhibitory action on CYP2C8” value [1] is given as “strong inhibitory action”, the “inhibitory action on CYP2C19” value [2] is given as “strong inhibitory action” and the “inhibitory action on CYP3A4” value [3] is given as “strong inhibitory action”. For the same molecule, the “uric acid uptake via URAT1” value [4] was “inhibited”.
